According to BindingDB's records for doi:10.7270/Q2RJ4GVG (The Scripps Research Institute Molecular Screening Center, 2007):

Biological target: T1, Isoform 2 of Nuclear receptor ROR-alpha (Alpha-2) (Homo sapiens, UniProt P35398)
T1 sequence (P35398 whole entry): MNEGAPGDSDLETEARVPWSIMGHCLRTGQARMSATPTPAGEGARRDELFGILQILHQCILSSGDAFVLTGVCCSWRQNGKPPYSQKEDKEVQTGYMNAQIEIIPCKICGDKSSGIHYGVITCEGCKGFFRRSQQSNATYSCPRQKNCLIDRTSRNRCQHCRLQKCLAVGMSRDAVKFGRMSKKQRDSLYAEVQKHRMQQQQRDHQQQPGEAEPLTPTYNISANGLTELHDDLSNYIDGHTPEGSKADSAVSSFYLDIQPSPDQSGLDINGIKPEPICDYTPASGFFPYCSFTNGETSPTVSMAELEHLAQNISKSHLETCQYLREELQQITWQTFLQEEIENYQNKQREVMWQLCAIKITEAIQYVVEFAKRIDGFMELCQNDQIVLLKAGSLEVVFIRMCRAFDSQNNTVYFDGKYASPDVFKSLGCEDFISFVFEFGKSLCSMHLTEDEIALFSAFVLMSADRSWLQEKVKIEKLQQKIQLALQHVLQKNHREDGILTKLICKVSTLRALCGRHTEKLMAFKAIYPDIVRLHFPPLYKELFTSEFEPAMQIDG
Assay: RORA ligand-binding domain transactivation agonists – cell-based, CHO-K1, Gal4-RORA LBD, luciferase luminescence, dose response (AID 681)

SMILES	EC50 [µM]	EC50 (inactive by the depositor's call) [µM]
O=C(Nc1ccc2nc(-c3ccc(Br)o3)[nH]c2c1)c1cccs1 [SMR000046012]	4.09	–
O=C(CSc1nc[nH]n1)Nc1nnc(-c2ccccc2)s1 [SMR000091719]	–	12.1
Oc1ccc(Cl)cc1C=Nc1nc2ccccc2[nH]1 [SMR000103225]	> 99	–
Cc1nc(N=CN(C)C)sc1C(=O)Nc1ccccc1 [SMR000107046]	5.11	–
Cc1c(C(=O)OCC2CCCO2)[nH]c2c1C(=O)CC(c1ccco1)C2 (stereo not given) [oxolan-2-ylmethyl 6-(furan-2-yl)-3-methyl-4-oxo-1,5,6,7-tetrahydroindole-2-carboxylate]	1.67	–
